# Test results taken from publication PMC5521788, “In Vitro comparison of ^213Bi- and ^177Lu-radiation for peptide receptor radionuclide therapy” (PLoS ONE, 2017).
# Key:
# BON cells = assay: Clonogenic assay, BON cells; format: cell-based, human
# Experimental: (§1) Before irradiation of the cells, 500 cells were seeded in 6-well plates (pre-coated with poly-l-lysine) 24 h before the experiment. […] After irradiation, internalization medium containing radioligand was removed. […] Every 2 or 3 d, medium was replaced by fresh culture medium. […] The 6-well plates containing colonies were scanned with a HP-scanner at 200 dpi. The colonies in each well were counted by a clonocounter. The survival was plotted as a function of absorbed dose and fitted to linear-quadratic (LQ) or linear-exponential curves. The cell absorbed dose during the incubation period was calculated with a dosimetry model of the 6-well plate, as described by Verwijnen et al.. The 3.5 cm diameter well cavity was modeled in the Monte Carlo radiation transport code Monte Carlo N-Particle […] (version 2.5.0, Los Alamos National Laboratory, USA) with homogeneously distributed radioactivity over the 2 mL volume aqueous liquid within the cavity.
# CA20948 cells = assay: Clonogenic assay, CA20948 cells; format: cell-based, rat
# Experimental: as §1, with “cavity. […] The division the layers of the well were as followed; 18 layers of 100 μm and 8 layers of 25 μm at the bottom of the well. […] D (25μm←fluid)=Ãfluid(1)×S(25μm←fluid)=∫T0TAfluide^-λtdt×S(25μm←fluid) […] The dosimetry for the specific uptake of radioactivity in the cells was calculated with the multicellular dosimetry code MIRD cell. […] Initially 500 cells were plated over the 9.62 cm^2 surface of the well. For evenly distributed cells over the surface the mean inter-cell distance would be 770 μm. In reality the cells were more clustered to the center of the well. […] The number of disintegrations within each cell (or Time-Integrated Activity per cell ã) was calculated by integration of the decay function of ^177Lu and ^213Bi and its progeny over the 12 d irradiation time multiplied by the ƒint and ƒmem per cell. This assumes that ƒmem will remain bound to the cells and ƒint remains trapped in the cell over a period of 12 d.” for “cavity.”
compound,measurement,setting,value
O=C([O-])CN(CCN(CC(=O)[O-])CC(=O)[O-])CCN(CC(=O)[O-])CC(=O)[O-].[213Bi+3] [^213Bi-DTPA],RBE at D10 compared to ^137Cs irradiation,BON cells,1.8
same,LQ model parameter α,"BON cells; 1 h exposure, colonies after 12 d, n = 3",0.87±0.1 /Gy
same,D10 (absorbed dose of 10% survival),"BON cells; 1 h incubation, 12 d colony growth",2.5 Gy
same,factor advantage in cell killing compared to ^177Lu-DOTATATE,"CA20948 cells; 10% survival, CA20948 (abstract)",6
same,RBE at D10 compared to ^137Cs irradiation,CA20948 cells; CA20948,2.0
same,LQ model parameter α,"CA20948 cells; CA20948, 1 h exposure, colonies after 12 d, n = 3",0.74±0.08 /Gy
same,D10 (absorbed dose of 10% survival),"CA20948 cells; CA20948, 1 h incubation, 12 d colony growth",2.6 Gy
same,RBE at 10% cell survival,CA20948 cells; in both low (BON) and high (CA20948) SSTR2 expressing cell lines,1.5–2.0
